Measured values from ChEMBL document CHEMBL2157884, “Scaffold-hopping with zwitterionic CCR3 antagonists: identification and optimisation of a series with good potency and pharmacokinetics leading to the discovery of AZ12436092” (Bioorg Med Chem Lett, 2012).

Assays:
in vivo = details: rat, iv
in vitro = details: human
physchem = details: buffer, pH 7.4
Hepatocyte = experiment: Intrinsic clearance in rat hepatocytes measured per 10^6 cells; type: ADME, cell-based
[1] = Oral bioavailability in rat; type: ADME, organism-based; details: in vivo
[2] = Oral bioavailability in dog; type: ADME, organism-based, Canis lupus familiaris; details: in vivo
[3] = Half life in iv dosed dog; type: ADME, organism-based, Canis lupus familiaris; details: in vivo

| Structure (SMILES) | microsomal CLint (in vitro; liver microsomes) | logD (physchem) | further results |
| --- | --- | --- | --- |
| Cc1c(Cl)ccc(OC2CCN(CC3CCN([C@@H](Cc4ccc(F)cc4)C(=O)O)CC3)CC2)c1Cl | < 3 µL/min/mg | 3.2 | half-life (in vivo): 0.8 h |
| Cc1c(OC2CCN(CC3CCN([C@@](C)(Cc4ccc(F)cc4)C(=O)O)CC3)CC2)ccc(Cl)c1Cl | – | 3 | – |
| O=C(O)[C@H](Cc1cccc(F)c1)N1CCC(CN2CCC(Oc3ccc(Cl)c(Cl)c3)CC2)CC1 | – | 2.7 | – |
| Cc1c(OC2CCN(CC3CCN([C@@H](Cc4ccc(F)cc4)C(=O)O)CC3)CC2)ccc(Cl)c1Cl | < 3 µL/min/mg | 3.5 | half-life (in vivo): 10 h; CLH (Hepatocyte): < 3 µL/min/1e6 cells |
| O=C(O)Cc1ccc(N2CCC(CN3CCC(Oc4ccc(Cl)c(Cl)c4)CC3)CC2)cc1 | – | 1.8 | – |
| O=C(O)[C@H](Cc1ccc(F)cc1)N1CCC(CN2CCC(Oc3ccc(Cl)c(Cl)c3)CC2)CC1 | 4 µL/min/mg | 2.6 | – |
| O=C(O)C(c1ccccc1)N1CCCC(CN2CCC(Oc3ccc(Cl)c(Cl)c3)CC2)C1 (mixture of isomers) | – | – | CLint scaled (in vitro; liver microsomes): < 3 mL/min/kg |
| Cc1ccccc1C[C@@H](C(=O)O)N1CCC(CN2CCC(Oc3ccc(Cl)c(Cl)c3)CC2)CC1 | < 3 µL/min/mg | 2.5 | – |
| O=C(O)c1ccc(CN2CCC(CN3CCC(Oc4ccc(Cl)c(Cl)c4)CC3)CC2)cc1 | – | 1.1 | – |
| O=C(O)c1cccnc1N1CCC(CN2CCC(Oc3ccc(Cl)c(Cl)c3)CC2)CC1 | – | 1.7 | – |
| O=C(O)COc1ccccc1N1CCC(CN2CCC(Oc3ccc(Cl)c(Cl)c3)CC2)CC1 | – | 2 | – |
| O=C(O)C(c1ccccc1)N1CCO[C@H](CN2CCC(Oc3ccc(Cl)c(Cl)c3)CC2)C1 (mixture of isomers) | – | – | bioavailability [1]: 36% |
| O=C(O)COc1cccc(N2CCC(CN3CCC(Oc4ccc(Cl)c(Cl)c4)CC3)CC2)c1 | – | 2 | – |
| O=C(O)[C@H](Cc1cccc(C(F)(F)F)c1)N1CCC(CN2CCC(Oc3ccc(Cl)c(Cl)c3)CC2)CC1 | 7 µL/min/mg | – | – |
| O=C(O)c1cccc(N2CCC(CN3CCC(Oc4ccc(Cl)c(Cl)c4)CC3)CC2)c1 | – | 2.2 | – |
| O=C(O)c1ccccc1N1CCC(CN2CCC(Oc3ccc(Cl)c(Cl)c3)CC2)CC1 | – | 2.8 | half-life (in vivo): 4.1 h; bioavailability [1]: 58% |
| O=C(O)C(c1ccccc1)N1CCC(N2CCC(Oc3ccc(Cl)c(Cl)c3)CC2)CC1 (racemic) | – | – | half-life (in vivo): 2.4 h; CLint scaled (in vitro; liver microsomes): 6 mL/min/kg; bioavailability [1]: 13% |
| Cc1c(OC2CCN(CC3CCN([C@@H](Cc4ccc(F)cc4)C(=O)O)CC3)CC2)ccc(C#N)c1Cl | – | 2.2 | microsomal CLint (in vitro; microsomes): 6 µL/min/mg |
| O=C(O)[C@H](Cc1ccccc1F)N1CCC(CN2CCC(Oc3ccc(Cl)c(Cl)c3)CC2)CC1 | – | 2.6 | – |
| O=C(O)[C@@H](Cc1ccccc1)N1CCC(CN2CCC(Oc3ccc(Cl)c(Cl)c3)CC2)CC1 | < 3 µL/min/mg | 2.5 | – |
| Cc1cc(Cl)ccc1OC1CCN(CC2CCN([C@@H](Cc3ccc(F)cc3)C(=O)O)CC2)CC1 | – | 2.5 | – |

| Structure (SMILES) | microsomal CLint (in vitro; liver microsomes) | logD (physchem) | further results |
| --- | --- | --- | --- |
| N#Cc1cccc(C[C@@H](C(=O)O)N2CCC(CN3CCC(Oc4ccc(Cl)c(Cl)c4)CC3)CC2)c1 | < 5 µL/min/mg | 2.3 | – |
| O=C(O)[C@H](Cc1ccccc1Cl)N1CCC(CN2CCC(Oc3ccc(Cl)c(Cl)c3)CC2)CC1 | < 5 µL/min/mg | – | – |
| O=C(O)[C@H](Cc1ccc(F)cc1)N1CCC(CN2CCC(Oc3ccc(Cl)cc3)CC2)CC1 | – | 1.9 | – |
| COc1ccccc1C[C@@H](C(=O)O)N1CCC(CN2CCC(Oc3ccc(Cl)c(Cl)c3)CC2)CC1 | 8 µL/min/mg | 2.8 | – |
| O=C(O)c1ccc(N2CCC(CN3CCC(Oc4ccc(Cl)c(Cl)c4)CC3)CC2)cc1 | – | 2.3 | – |
| N#Cc1ccccc1C[C@@H](C(=O)O)N1CCC(CN2CCC(Oc3ccc(Cl)c(Cl)c3)CC2)CC1 | – | 2.1 | microsomal CLint (in vitro; microsomes): 6 µL/min/mg |
| O=C(O)Cc1cccc(N2CCC(CN3CCC(Oc4ccc(Cl)c(Cl)c4)CC3)CC2)c1 | – | 1.6 | – |
| N#Cc1ccc(C[C@@H](C(=O)O)N2CCC(CN3CCC(Oc4ccc(Cl)c(Cl)c4)CC3)CC2)cc1 | – | 2.2 | – |
| O=C(O)[C@H](Cc1ccc(Cl)cc1)N1CCC(CN2CCC(Oc3ccc(Cl)c(Cl)c3)CC2)CC1 | < 3 µL/min/mg | 2.9 | – |
| O=C(O)[C@H](c1ccccc1)N1CCC(CN2CCC(Oc3ccc(Cl)c(Cl)c3)CC2)CC1 | – | – | CLint scaled (in vitro; microsomes): < 3 mL/min/kg |
| Cc1cc(OC2CCN(CC3CCN([C@@](C)(Cc4ccc(F)cc4)C(=O)O)CC3)CC2)ccc1Cl | – | 2.1 | bioavailability [1]: 84% |
| Cc1ccc(C[C@@H](C(=O)O)N2CCC(CN3CCC(Oc4ccc(Cl)c(Cl)c4)CC3)CC2)cc1 | 14 µL/min/mg | 3 | – |
| Cc1cc(Cl)ccc1OC1CCN(CC2CCN([C@@](C)(Cc3ccc(F)cc3)C(=O)O)CC2)CC1 | – | 2.6 | bioavailability [2]: 83%; half-life [3]: 12 h; half-life (in vivo): 8.7 h; bioavailability [1]: 52% |
| O=C(O)C(c1ccccc1)N1CCC(CN2CCC(Oc3ccc(Cl)c(Cl)c3)CC2)CC1 (racemic) | – | – | CLint scaled (in vitro; microsomes): < 3 mL/min/kg |
| Cc1cc(F)ccc1OC1CCN(CC2CCN([C@@](C)(Cc3ccc(F)cc3)C(=O)O)CC2)CC1 | – | 2 | bioavailability [1]: 24% |
| Cc1ccc(S(=O)(=O)NC(=O)N2CCC(N3CCC(Oc4ccc(Cl)c(Cl)c4)CC3)CC2)cc1 | – | – | half-life (in vivo): 2.7 h; CLint scaled (in vitro; liver microsomes): 1 mL/min/kg; bioavailability [1]: 30% |
| O=C(O)[C@@H](c1ccccc1)N1CCC(CN2CCC(Oc3ccc(Cl)c(Cl)c3)CC2)CC1 | – | – | half-life (in vivo): 4.8 h; CLint scaled (in vitro; microsomes): < 3 mL/min/kg; bioavailability [1]: 5% |
| Cc1cc(F)ccc1OC1CCN(CC2CCN([C@@H](Cc3ccc(F)cc3)C(=O)O)CC2)CC1 | < 3 µL/min/mg | – | – |
| Cc1cccc(C[C@@H](C(=O)O)N2CCC(CN3CCC(Oc4ccc(Cl)c(Cl)c4)CC3)CC2)c1 | < 6 µL/min/mg | 2.8 | – |
| O=C(O)[C@H](Cc1ccccc1)N1CCC(CN2CCC(Oc3ccc(Cl)c(Cl)c3)CC2)CC1 | < 3 µL/min/mg | 2.5 | half-life (in vivo): 12 h; bioavailability [1]: 62% |
